According to patent publication US9409966B2, “Glucagon-like peptide-1 derivatives and their pharmaceutical use” (priority 2007, dated 2016):
*1 amine or outer side, *2 acyl side, *3 side chain or, on linkers, in order; H or OH if unused. Where a SMILES comes first, the peptide text is derived from it. Side-chain parts run from the residue outwards. [ ]: non-standard residue; d: D form. The star is where a group is joined. X1 = O=C(CCCCCCCCCCCCCCCc1nnn[nH]1)NS(=O)(=O)CCCC(=O)*; C16 diacid = O=C(O)CCCCCCCCCCCCCCC(=O)*; γGlu = O=C(O)[C@H](CCC(=O)[*:2])N[*:1]; Desaminohistidyl = O=C(CCc1c[nH]cn1)*; AEEA = NCCOCCOCC(=O)O; Aib = CC(C)(N)C(=O)O; GABA = NCCCC(=O)O

Target: human serum albumin (HSA) (Homo sapiens, UniProt P02768)
Assay: Albumin binding affinity, competition scintillation proximity assay (SPA)
Protocol: Streptavidin-SPA beads (GE Healthcare RPNQ0009) were incubated with biotinylated HSA for 5 hours. The beads were washed with buffer to remove unbound HSA. […] After 20 hours of gentle rocking at room temperature the plates were centrifuged and counted on a TopCounter.

human serum albumin (HSA), sequence (P02768 25-609): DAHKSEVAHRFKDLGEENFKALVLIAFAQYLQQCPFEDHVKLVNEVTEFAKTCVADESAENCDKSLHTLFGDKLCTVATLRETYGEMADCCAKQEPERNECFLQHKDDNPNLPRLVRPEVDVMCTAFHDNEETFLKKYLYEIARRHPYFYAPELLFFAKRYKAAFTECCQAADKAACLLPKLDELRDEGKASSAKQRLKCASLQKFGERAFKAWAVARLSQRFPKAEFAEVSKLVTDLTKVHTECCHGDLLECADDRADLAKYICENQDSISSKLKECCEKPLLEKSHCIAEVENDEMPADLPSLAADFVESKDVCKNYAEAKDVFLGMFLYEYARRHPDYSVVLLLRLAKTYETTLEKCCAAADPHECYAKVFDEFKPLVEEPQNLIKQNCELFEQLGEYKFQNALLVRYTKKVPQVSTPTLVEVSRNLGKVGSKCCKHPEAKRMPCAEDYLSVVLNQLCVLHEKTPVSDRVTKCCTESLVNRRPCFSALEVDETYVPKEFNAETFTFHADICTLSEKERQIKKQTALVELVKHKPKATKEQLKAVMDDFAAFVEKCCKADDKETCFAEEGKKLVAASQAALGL

EC50 [nM] | EC50 at 20 hours (human, pH 7.4) [nM] | SMILES
200 to 400 |  | CC[C@H](C)[C@H](NC(=O)[C@H](Cc1ccccc1)NC(=O)[C@H](CCC(=O)O)NC(=O)[C@H](CCCNC(=N)N)NC(=O)[C@H](C)NC(=O)[C@H](C)NC(=O)[C@H](CCC(N)=O)NC(=O)[C@H](CCC(=O)O)NC(=O)[C@H](CCC(=O)O)NC(=O)[C@H](CC(C)C)NC(=O)[C@H](Cc1ccc(O)cc1)NC(=O)[C@H](CO)NC(=O)[C@H](CO)NC(=O)[C@@H](NC(=O)[C@H](CC(=O)O)NC(=O)[C@H](CO)NC(=O)[C@@H](NC(=O)[C@H](Cc1ccccc1)NC(=O)[C@@H](NC(=O)CNC(=O)[C@H](CCC(=O)O)NC(=O)C(C)(C)NC(=O)[C@@H](N)Cc1c[nH]cn1)[C@@H](C)O)[C@@H](C)O)C(C)C)C(=O)N[C@@H](CCCCNC(=O)COCCOCCNC(=O)COCCOCCNC(=O)C[C@H](NC(=O)C1CCN(C(=O)CCCCCCCCCCCCCCCCCCC(=O)O)CC1)C(=O)O)C(=O)N[C@@H](Cc1c[nH]c2ccccc12)C(=O)N[C@@H](CC(C)C)C(=O)N[C@H](C(=O)N[C@@H](CCCCN)C(=O)NCC(=O)N[C@@H](CCCNC(=N)N)C(=O)NCC(=O)O)C(C)C [Example 4, N-epsilon30{2-[2-(2-{2-[2-((S)-3-carboxy-3-{[1-(19-carboxynonadecanoyl)piperidine-4-carbonyl]amino}propionylamino)ethoxy]ethoxy}acetylamino)ethoxy]ethoxy}acetyl [Aib8,Glu22,Arg26,Lys30]GLP-1-(7-37)]
 | 150 to 200 | CC[C@H](C)[C@H](NC(=O)[C@H](Cc1ccccc1)NC(=O)[C@H](CCC(=O)O)NC(=O)[C@H](CCCNC(=N)N)NC(=O)[C@H](C)NC(=O)[C@H](C)NC(=O)[C@H](CCC(N)=O)NC(=O)[C@H](CCC(=O)O)NC(=O)[C@H](CCC(=O)O)NC(=O)[C@H](CC(C)C)NC(=O)[C@H](Cc1ccc(O)cc1)NC(=O)[C@H](CO)NC(=O)[C@H](CO)NC(=O)[C@@H](NC(=O)[C@H](CC(=O)O)NC(=O)[C@H](CO)NC(=O)[C@@H](NC(=O)[C@H](Cc1ccccc1)NC(=O)[C@@H](NC(=O)CNC(=O)[C@H](CCC(=O)O)NC(=O)C(C)(C)NC(=O)[C@@H](N)Cc1c[nH]cn1)[C@@H](C)O)[C@@H](C)O)C(C)C)C(=O)N[C@@H](CCC(=O)O)C(=O)N[C@@H](Cc1c[nH]c2ccccc12)C(=O)N[C@@H](CC(C)C)C(=O)N[C@H](C(=O)N[C@@H](CCCCN)C(=O)NCC(=O)N[C@@H](CCCNC(=N)N)C(=O)N1CCC[C@H]1C(=O)N[C@@H](CCCCNC(=O)COCCOCCNC(=O)CC[C@H](NC(=O)CC[C@H](NC(=O)CCCNC(=O)CCCS(=O)(=O)NC(=O)CCCCCCCCCCCCCCCc1nnn[nH]1)C(=O)O)C(=O)O)C(=O)O)C(C)C [Example 14, [Aib8,Glu22,Arg26,Glu30,Pro37]GLP-1-(7-37)Lys [2-(2-{2-[4-Carboxy-4-(4-carboxy-4-{4-[4-(16-1H-tetrazol-5-yl-hexadecanoylsulfamoyl)butyrylamino]butyrylamino}butyrylamino)butyrylamino]ethoxy}ethoxy)acetyl]] (H-H[Aib]EGTFTSDVSSYLEEQAAREFIEWLVKGRPK([AEEA-γGlu-γGlu-GABA-X1])-OH; N-terminus and C-terminus assumed)
> 2000 |  | CC[C@H](C)[C@H](NC(=O)[C@H](Cc1ccccc1)NC(=O)[C@H](CCC(=O)O)NC(=O)[C@H](CCCNC(=N)N)NC(=O)[C@H](C)NC(=O)[C@H](C)NC(=O)[C@H](CCC(N)=O)NC(=O)[C@H](CCC(=O)O)NC(=O)[C@H](CCC(=O)O)NC(=O)[C@H](CC(C)C)NC(=O)[C@H](Cc1ccc(O)cc1)NC(=O)[C@H](CO)NC(=O)[C@H](CO)NC(=O)[C@@H](NC(=O)[C@H](CC(=O)O)NC(=O)[C@H](CO)NC(=O)[C@@H](NC(=O)[C@H](Cc1ccccc1)NC(=O)[C@@H](NC(=O)CNC(=O)[C@H](CCC(=O)O)NC(=O)[C@H](C)NC(=O)CCc1c[nH]cn1)[C@@H](C)O)[C@@H](C)O)C(C)C)C(=O)N[C@@H](CCC(=O)O)C(=O)N[C@@H](Cc1c[nH]c2ccccc12)C(=O)N[C@@H](CC(C)C)C(=O)N[C@H](C(=O)N[C@@H](CCCNC(=N)N)C(=O)NCC(=O)N[C@@H](CCCCNC(=O)COCCOCCNC(=O)COCCOCCNC(=O)CC[C@H](NC(=O)CCCCCCCCCCCCCCC(=O)O)C(=O)O)C(=O)NCC(=O)N[C@@H](CCC(=O)O)C(=O)N[C@@H](CCCCN)C(=O)O)C(C)C [Example 30, N-epsilon36-[2-(2-{2-[2-(2-{2-[(S)-4-carboxy-4-(15-carboxy-pentadecanoylamino)-butyrylamino]-ethoxy}-ethoxy)-acetylamino]-ethoxy}-ethoxy)-acetyl] [desaminoHis7, Glu22, Arg26, Glu30, Arg34, Lys36]GLP-1-(7-37)-Glu-Lys peptide] (Desaminohistidyl-AEGTFTSDVSSYLEEQAAREFIEWLVRGK([AEEA-AEEA-γGlu-C16 diacid])GEK-OH)
1500 to 2000 |  | CC[C@H](C)[C@H](NC(=O)[C@H](Cc1cccc(C(F)(F)F)c1)NC(=O)[C@H](CCC(=O)O)NC(=O)[C@H](CCCNC(=N)N)NC(=O)[C@H](C)NC(=O)[C@H](C)NC(=O)[C@H](CCC(N)=O)NC(=O)[C@H](CCC(=O)O)NC(=O)[C@H](CCC(=O)O)NC(=O)[C@H](CC(C)C)NC(=O)[C@H](Cc1ccc(O)cc1)NC(=O)[C@H](CO)NC(=O)[C@H](CO)NC(=O)[C@@H](NC(=O)[C@H](CC(=O)O)NC(=O)[C@H](CO)NC(=O)[C@@H](NC(=O)[C@H](Cc1ccccc1)NC(=O)[C@@H](NC(=O)CNC(=O)[C@H](CCC(=O)O)NC(=O)[C@H](C)NC(=O)CCc1c[nH]cn1)[C@@H](C)O)[C@@H](C)O)C(C)C)C(=O)N[C@@H](C)C(=O)N[C@@H](Cc1c[nH]c2ccccc12)C(=O)N[C@@H](CC(C)C)C(=O)N[C@H](C(=O)N[C@@H](CCCNC(=N)N)C(=O)NCC(=O)N[C@@H](CCCNC(=N)N)C(=O)N[C@@H](CCCCNC(=O)COCCOCCNC(=O)COCCOCCNC(=O)C[C@@H](NC(=O)C1CCN(C(=O)CCCCCCCCCCCCCCCCC(=O)O)CC1)C(=O)O)C(N)=O)C(C)C [Example 3, N-epsilon37-[2-(2-[2-(2-[2-(2-((R)-3-[1-(17-Carboxyheptadecanoyl)piperidin-4-ylcarbonylamino]3-carboxypropionylamino)ethoxy)ethoxy]acetylamino)ethoxy]ethoxy)acetyl][DesaminoHis 7,Glu22,Arg26,Arg34,Phe(m-CF3)28]GLP-1-(7-37)amide]
